The values below come from ChEMBL document CHEMBL3508693 (2016).

One data set addresses T1, CYP1A2 (Homo sapiens, UniProt P05177).
T1 sequence (P05177 whole entry): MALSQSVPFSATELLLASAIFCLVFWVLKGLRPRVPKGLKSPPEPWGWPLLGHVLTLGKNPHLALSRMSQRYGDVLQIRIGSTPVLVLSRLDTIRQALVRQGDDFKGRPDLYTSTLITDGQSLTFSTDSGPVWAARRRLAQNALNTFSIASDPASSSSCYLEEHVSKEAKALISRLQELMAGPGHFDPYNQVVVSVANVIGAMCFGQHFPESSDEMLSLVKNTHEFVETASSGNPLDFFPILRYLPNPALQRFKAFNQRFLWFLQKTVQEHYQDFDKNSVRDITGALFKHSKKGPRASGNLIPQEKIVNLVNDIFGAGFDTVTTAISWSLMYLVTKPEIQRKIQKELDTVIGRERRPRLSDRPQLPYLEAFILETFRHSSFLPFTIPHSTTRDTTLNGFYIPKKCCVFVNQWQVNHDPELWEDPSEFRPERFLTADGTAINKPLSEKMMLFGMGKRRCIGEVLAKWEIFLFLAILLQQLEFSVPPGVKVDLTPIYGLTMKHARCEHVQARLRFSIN
Put plainly: Inhibition of CYP1A2 in human liver microsomes from 10 healthy donors at 200 uM aliskiren (SPP100). Format: ADME, Microsome. Also noted: conc 200 uM. As to conditions: probe phenacetin (O-deethylation). In general terms: Liver microsomes are vesicles of endoplasmic reticulum, rich in cytochrome P450 enzymes.

Another data set has as its target CYP2D6 (Homo sapiens, UniProt P10635). Briefly: Inhibitory activity of 200 µM SPP100 on cDNA-derived CYP2D6 enzyme in microsome prepared from human lymphoblastoid cell line. The data set is classed as ADME, microsomes. On the set-up: conc 200 µM, interact cpd conc 10 uM. To be noted: probe bufuralol (10 uM).
Another data set has as its target T2, CYP2A6 (Homo sapiens, UniProt P11509).
T2 sequence (P11509 whole entry): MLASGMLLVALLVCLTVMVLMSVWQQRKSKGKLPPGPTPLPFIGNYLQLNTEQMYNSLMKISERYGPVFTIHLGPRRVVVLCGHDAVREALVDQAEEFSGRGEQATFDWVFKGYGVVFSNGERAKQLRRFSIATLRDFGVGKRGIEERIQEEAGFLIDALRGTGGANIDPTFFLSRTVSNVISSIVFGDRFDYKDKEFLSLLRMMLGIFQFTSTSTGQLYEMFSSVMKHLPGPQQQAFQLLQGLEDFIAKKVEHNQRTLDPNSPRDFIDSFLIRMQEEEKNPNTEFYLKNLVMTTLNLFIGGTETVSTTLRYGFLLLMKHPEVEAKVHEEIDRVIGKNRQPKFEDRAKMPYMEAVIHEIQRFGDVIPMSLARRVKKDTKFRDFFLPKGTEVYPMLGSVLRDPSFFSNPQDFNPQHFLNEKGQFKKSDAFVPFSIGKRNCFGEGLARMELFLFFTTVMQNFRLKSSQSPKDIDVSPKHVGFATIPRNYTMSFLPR
Briefly: Inhibitory activity of 200 uM SPP100 on 34 Pmoles of cDNA-derived CYP2A6 enzyme in microsome prepared from human lymphoblastoid cell line. The data set is classed as ADME, microsomes. Also noted: conc 200 uM, interact cpd conc 3 uM. To be noted: probe coumarine.

Data set [1] in a line: Cmax of [14C] aliskiren hemifumarate following single intravenous dose of [14C] aliskiren hemifumarate at 10 mg.Kg-1 level in mouse. Format: ADME, organism-based, TgRasH2, Plasma. To be noted: in vivo.
Data set [2] can be described thus: Mean excretion of radioactivity (24-48h) in urine and faeces following single oral dose of 500 mg.Kg-1 [14C] aliskiren hemifumarate in mouse. Format: ADME, organism-based, TgRasH2, Urine/Feces. As to conditions: in vivo.
The nature of data set [3]: Mean excretion of radioactivity (0-24h) in urine and faeces following single oral dose of 100 mg.Kg-1 [14C] aliskiren hemifumarate in rat. As to conditions: in vivo. The data set is classed as ADME, organism-based, Albino HAN:WIST, Urine/Feces.
Data set [4] in a line: Excretion (24h) of radioactivity in urine following intravenous administration of [14C] aliskiren hemifumarate at 10 mg.Kg-1 level in rat. As to conditions: in vivo. The data set is classed as ADME, organism-based, Lister-Hooded.
The nature of data set [5]: Excretion of radioactivity (72-96h) in urine following single oral dose of 100 mg.Kg-1 [14C] aliskiren hemifumarate in rat. To be noted: in vivo. The data set is classed as ADME, organism-based, Albino HAN:WIST.
Data set [6] in a line: Excretion of radioactivity (48-72h) in urine following single intravenous dose of 10 mg.Kg-1 [14C] aliskiren hemifumarate in mouse. Format: ADME, organism-based, TgRasH2. As to conditions: in vivo.
Data set [7] in a line: Cmax/dose (0-96h) of total radioactivity following oral administration of [14C] aliskiren hemifumarate at 100 mg.Kg-1 level in rat. Format: ADME, organism-based, Albino HAN:WIST, Plasma. As to conditions: in vivo.
Data set [8] in a line: % of radioactivity (48h) recovered in cage wash of receiver rat following duodenal infusion of radioactivity through bile from donor rat treated with single intravenous administration of 10 mg.Kg-1 [14C] aliskiren hemifumarate. Format: ADME, organism-based, HAN:WIST(SPF). To be noted: in vivo.
Data set [9] in a line: Concentration of radioactivity in the liver following repeated oral administration of [14C] aliskiren hemifumarate at 100 mg.Kg-1 level studied at 24h after 10th dose in rat. Format: ADME, organism-based, Albino HAN:WIST. As to conditions: in vivo.
Data set [10] can be described thus: Concentration of radioactivity in the colon wall following repeated oral administration of [14C] aliskiren hemifumarate at 100 mg.Kg-1 level studied at 2h after 7th dose in rat. Format: ADME, organism-based, Albino HAN:WIST. As to conditions: in vivo.
Data set [11] can be described thus: Tmax of aliskiren hemifumarate following 2 week oral dosing of aliskiren hemifumarate at 100 mg.Kg-1 level studied on day 1 in male Callithrix jacchus. To be noted: marmoset, plasma. The data set is classed as ADME, organism-based.
The nature of data set [12]: Cmax of aliskiren hemifumarate following 2 week oral dosing of aliskiren hemifumarate at 100 mg.Kg-1 level studied on day 14 in female Callithrix jacchus. As to conditions: marmoset, plasma. The data set is classed as ADME, organism-based.
Data set [13] in a line: AUC(0-24h) of aliskiren hemifumarate following 2 week oral dosing of aliskiren hemifumarate at 10 mg.Kg-1 level studied on day 14 in female Callithrix jacchus. Format: ADME, organism-based. To be noted: marmoset, plasma.
Data set [14] can be described thus: Cmax of aliskiren hemifumarate following 2 week oral dosing of aliskiren hemifumarate at 10 mg.Kg-1 level studied on day 14 in female Callithrix jacchus. Format: ADME, organism-based. To be noted: marmoset, plasma.
The nature of data set [15]: Tmax of aliskiren hemifumarate following 4 week oral dietary dosing of aliskiren hemifumarate at 1500 mg.Kg-1 level in female mouse. The data set is classed as ADME, organism-based. As to conditions: CB6F1-TGrasH2, mouse, in vivo.
Data set [16] can be described thus: Cmax/dose of aliskiren hemifumarate following 4 week oral dietary dosing of aliskiren hemifumarate at 1000 mg.Kg-1 level in male mouse. The data set is classed as ADME, organism-based, CB6F1-TGrasH2. To be noted: in vivo, 672 h.
Data set [17] can be described thus: Hepatic blood flow (0-168h) of unlabeled aliskiren hemifumarate following single intravenous administration of aliskiren hemifumarate at 1 mg.Kg-1 level in marmoset. As to conditions: in vivo. The data set is classed as ADME, organism-based, Callithrix jacchus, Liver.
Data set [18] can be described thus: Cmaxspec of aliskiren hemifumarate following 2 week oral dosing of aliskiren hemifumarate at 10 mg.Kg-1 level studied on day 14 in female Callithrix jacchus. The data set is classed as ADME, organism-based, Plasma. To be noted: marmoset, in vivo, 336 h.
The nature of data set [19]: Cmax/dose of aliskiren hemifumarate following 4 week oral dietary dosing of aliskiren hemifumarate at 500 mg.Kg-1 level in male mouse. Format: ADME, organism-based, CB6F1-TGrasH2. To be noted: in vivo, 672 h.
Data set [20] is described as follows: Effect of 2 week oral dosing of aliskiren hemifumarate at 10 mg.Kg-1 level on hematological parameter values in male Callithrix jacchus. The data set is classed as toxicity, organism-based, Plasma. To be noted: marmoset, in vivo, 336 h.
Data set [21] can be described thus: Plasma clearance (0-96h) of unlabeled aliskiren hemifumarate following intravenous administration of aliskiren hemifumarate at 10 mg.Kg-1 level in rat. The data set is classed as ADME, organism-based, Albino HAN:WIST. To be noted: in vivo.
The nature of data set [22]: AUC(0-24h) of aliskiren hemifumarate following 2 week oral dosing of aliskiren hemifumarate at 50 mg.Kg-1 level studied on day 1 in male Callithrix jacchus. Format: ADME, organism-based. To be noted: marmoset, plasma.
The nature of data set [23]: AUC/dose (0-96h) of unlabeled aliskiren hemifumarate following oral administration of aliskiren hemifumarate at 100 mg.Kg-1 level in rat. The data set is classed as ADME, organism-based, Albino HAN:WIST, Plasma. As to conditions: in vivo.
A short description of data set [24]: AUCspec of aliskiren hemifumarate following 2 week oral dosing of aliskiren hemifumarate at 10 mg.Kg-1 level studied on day 14 in female Callithrix jacchus. Format: ADME, organism-based, Plasma. To be noted: marmoset, in vivo, 336 h.

Sequence of CYP2D6 (P10635 whole entry): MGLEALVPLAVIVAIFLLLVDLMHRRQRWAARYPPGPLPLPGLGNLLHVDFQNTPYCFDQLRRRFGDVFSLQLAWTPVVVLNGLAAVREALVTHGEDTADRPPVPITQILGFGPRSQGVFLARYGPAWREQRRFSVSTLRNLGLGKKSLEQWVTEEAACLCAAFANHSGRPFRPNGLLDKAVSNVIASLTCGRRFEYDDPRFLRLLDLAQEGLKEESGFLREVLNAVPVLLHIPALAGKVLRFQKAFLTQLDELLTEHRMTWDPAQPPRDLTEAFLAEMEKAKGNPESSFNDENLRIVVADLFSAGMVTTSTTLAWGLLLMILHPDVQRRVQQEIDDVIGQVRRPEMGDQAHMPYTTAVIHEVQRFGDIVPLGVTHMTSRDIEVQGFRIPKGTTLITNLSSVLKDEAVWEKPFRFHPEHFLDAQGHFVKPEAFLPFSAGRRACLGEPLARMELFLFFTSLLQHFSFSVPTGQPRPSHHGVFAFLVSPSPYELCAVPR

Regarding `COCCCOc1cc(C[C@@H](C[C@H](N)[C@@H](O)C[C@H](C(=O)NCC(C)(C)C(N)=O)C(C)C)C(C)C)ccc1OC`, the results for the inhibition at 200 µM on CYP1A2 and on CYP2A6 were 15.2% and 10.5%, respectively. Moreover, at CYP2D6, the inhibition – broadly, the change of the read-out against control, counted positive when it falls – at 200 uM is 37%.
Consider `COCCCOc1cc(C[C@@H](C[C@H](N)[C@@H](O)C[C@H](C(=O)NCC([14CH3])([14CH3])C(N)=O)C(C)C)C(C)C)ccc1OC.O=C(O)/C=C/C(=O)O`, for which the Cmax (commonly the maximum level reached in the sampled fluid or tissue) in data set [1] worked out at 14.6 µM. The Radiolabel recovery is 10.51% in data set [2]; 36.1% in data set [3]; 10% in data set [4]; 0.01% in [5]; 8.99% in data set [6]; 4% in [8]. The Radiolabel recovery entry in data set [9] was “OUTCOME = Detected”; in data set [10], “OUTCOME = Observed, VALUE = Highest radioactivity concentration was observed”. Besides, the Cmax normalised in [7] is 0.0042 (umol/L)/(mg/kg); in [7] (iv, 10 mg/kg), 2.12 (umol/L)/(mg/kg).
For the compound `COCCCOc1cc(C[C@@H](C[C@H](N)[C@@H](O)C[C@H](C(=O)NCC(C)(C)C(N)=O)C(C)C)C(C)C)ccc1OC.COCCCOc1cc(C[C@@H](C[C@H](N)[C@@H](O)C[C@H](C(=O)NCC(C)(C)C(N)=O)C(C)C)C(C)C)ccc1OC.O=C(O)/C=C/C(=O)O` [ALISKIREN FUMARATE], the Tmax (as a rule, the time at which the peak concentration occurs) in data set [11] stood at 60 min; in data set [15] it was 30 min. In addition, the Cmax in data set [12] came to 10600 ng/mL; in data set [14], 6730 ng/mL. For the same compound, the AUC (as a rule, the area under the concentration-time curve, a measure of exposure) at 24 h in data set [13] stood at 29000 ng·h/mL. The figures for the Cmax normalised in data set [16], in data set [18] and in data set [19] were 0.879 (ng/mL)/(mg/kg/day), 0.673 (ug/ml)/(mg/kg) and 0.624 (ng/mL)/(mg/kg/day), respectively. In data set [17], this compound came in with a Hepatic blood flow of 2.8 L·h/kg. Further, the Change in hematology entry in [20] was “OUTCOME = Hematological parameter values did not differ from control values. No animals died during the study”. The Plasma clearance in data set [21] was 1.2 L·h/kg. Moreover, the AUC(0-t) (in general, exposure summed from dosing to a finite time, without extrapolation to infinity) at 24 h in [22] was determined as 58100 ng·h/mL. Besides, the AUC normalised in data set [23] is 0.03 (umol.h/L)/(mg/kg); in data set [24], 2.9 ((ug.h.ml-1)/(mg/kg).
